{"source": "patent US10278950B2", "about": "“Therapeutic agents containing cannabis flavonoid derivative for ocular disorders” (priority 2015, dated 2019)", "data": [{"biological_target": "T1, BIKE (BMP2K) kinase (Homo sapiens, UniProt Q9NSY1)", "T1 construct": "made in house", "T1 sequence (Q9NSY1 whole entry)": "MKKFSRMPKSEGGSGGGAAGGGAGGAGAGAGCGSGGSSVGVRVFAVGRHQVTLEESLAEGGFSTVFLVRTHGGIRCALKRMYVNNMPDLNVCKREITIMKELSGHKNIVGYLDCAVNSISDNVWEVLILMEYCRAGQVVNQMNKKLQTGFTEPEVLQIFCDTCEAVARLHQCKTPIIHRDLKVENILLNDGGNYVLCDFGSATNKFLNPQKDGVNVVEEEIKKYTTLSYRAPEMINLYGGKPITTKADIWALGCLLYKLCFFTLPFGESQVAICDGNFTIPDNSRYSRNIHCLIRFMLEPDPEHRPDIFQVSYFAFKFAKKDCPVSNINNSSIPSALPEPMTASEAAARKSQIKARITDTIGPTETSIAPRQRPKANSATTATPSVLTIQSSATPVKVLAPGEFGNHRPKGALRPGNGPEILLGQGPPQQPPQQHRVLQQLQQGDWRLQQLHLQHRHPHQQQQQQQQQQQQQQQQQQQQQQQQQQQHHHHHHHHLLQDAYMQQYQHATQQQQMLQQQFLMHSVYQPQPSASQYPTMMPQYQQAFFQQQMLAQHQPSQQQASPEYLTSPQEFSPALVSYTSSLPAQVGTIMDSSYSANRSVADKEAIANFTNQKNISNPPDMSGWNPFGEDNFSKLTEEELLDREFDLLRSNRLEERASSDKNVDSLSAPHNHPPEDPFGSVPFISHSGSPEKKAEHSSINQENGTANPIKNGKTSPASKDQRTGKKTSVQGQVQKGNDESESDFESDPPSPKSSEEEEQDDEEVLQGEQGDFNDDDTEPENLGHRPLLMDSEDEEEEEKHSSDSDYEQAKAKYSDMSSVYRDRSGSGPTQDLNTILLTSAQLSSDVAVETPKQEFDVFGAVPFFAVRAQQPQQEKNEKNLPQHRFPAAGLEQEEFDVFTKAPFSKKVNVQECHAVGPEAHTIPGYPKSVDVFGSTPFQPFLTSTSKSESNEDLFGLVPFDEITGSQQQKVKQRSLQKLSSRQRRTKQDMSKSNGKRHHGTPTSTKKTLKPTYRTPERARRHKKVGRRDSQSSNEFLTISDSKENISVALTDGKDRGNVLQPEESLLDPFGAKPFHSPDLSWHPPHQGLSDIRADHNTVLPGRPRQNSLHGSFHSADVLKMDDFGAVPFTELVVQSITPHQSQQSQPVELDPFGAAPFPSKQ", "assay": "Kinase inhibition assay (competition binding assay)", "conditions": "qualitative statement; dose response curve only in FIG. 3, no values given", "procedure": "Cannabis flavonoids and their analogs were subjected to kinase inhibition assay. The compounds were first screened at a single concentration of 10 μM in the primary assay. Compounds inhibiting at least 70% of specific kinases were subjected to further screening to determine kd values. To determine the kd values, competition binding assays were established, authenticated and executed as described previously (Fabian et al., 2005, Karaman et al., 2008). For most assays, kinases were fused to T7 phage strains (Fabian et al. 2005) and for the other assays, kinases were produced in HEK-293 cells after which they were tagged with DNA for quantitative PCR detection (data not shown). In general, full-length constructs were used for small, single domain kinases, and catalytic domain constructs for large multi-domain kinases. The binding assays utilized streptavidin-coated magnetic beads treated with biotinylated small molecule ligands for 30 minutes at room temperature which generated affinity resins for the kinase assays. The liganded beads were blocked with excess biotin and washed with blocking buffer (SeaBlock (Pierce), 1% BSA, 0.05% Tween 20, 1 mM DTT) to remove unbound ligand and to reduce non-specific phage binding. Binding reactions were assembled by combining kinases, liganded affinity beads, and test compounds in 1× binding buffer (20% SeaBlock, 0.17×PBS, 0.05% Tween 20, 6 mM DTT). Test compounds were prepared as 40× stocks in 100% DMSO and diluted directly into the assay (Final DMSO concentration=2.5%). All reactions were performed in polypropylene 384-well plates in a final volume of 0.04 ml. The assay plates were incubated at room temperature with shaking for 1 hour and the affinity beads were washed with wash buffer (1×PBS, 0.05% Tween 20). The beads were then re-suspended in elution buffer (1×PBS, 0.05% Tween 20, 0.5 μM non-biotinylated affinity ligand) and incubated at room temperature with shaking for 30 minutes. The kinase concentration in the eluates was measured by quantitative PCR. Kd values were determined using a standard dose response curve using the hill equation. Curves were fitted using a non-linear least square fit with the Levenberg-Marquardt algorithm.", "values": [{"smiles": "COc1cc(-c2cc(=O)c3c(O)cc(O)c(C/C=C(\\C)CCC=C(C)C)c3o2)ccc1O", "note": "[cannflavin C]", "ability to inhibit the BMP2K kinase": "demonstrated ability to inhibit"}, {"smiles": "COc1cc(-c2cc(=O)c3c(O)c(CC=C(C)C)c(O)cc3o2)ccc1O", "note": "[cannflavin B]", "ability to inhibit the BMP2K kinase": "demonstrated ability to inhibit"}, {"smiles": "COc1cc(-c2cc(=O)c3c(O)c(C/C=C(\\C)CCC=C(C)C)c(O)cc3o2)ccc1O", "note": "[cannflavin A]", "ability to inhibit the BMP2K kinase": "demonstrated ability to inhibit"}, {"smiles": "COc1cc(-c2cc(=O)c3c(O)cc(O)c(CC=C(C)C)c3o2)ccc1O", "note": "[isocannflavin B]", "ability to inhibit the BMP2K kinase": "demonstrated ability to inhibit"}]}]}
